We go through 13 compounds from paper PMC12471852, “Design and Synthesis of Marine-Inspired Itampolin A Derivatives to Overcome Chemoresistance in NSCLC via Cholesterol Homeostasis Modulation” (Marine Drugs, 2025).

“And” between values parts separate entries of the source, which are not always exact repeats. Identical values can stand only once. Like-named read-outs stand apart in the source and are kept apart here.

In experiment [1] the target is T1, p38α (Homo sapiens, UniProt Q16539). On the set-up: method as in PMID 30642059. As to conditions: compounds 6a–6o synthesized in previous work; read-out: p38α MAP kinase inhibitory activity IC50; cited from earlier work.
The target in experiment [2] is T1, p38α. In words: ADP-Glo Kinase Assay, p38α MAP kinase inhibition. As to conditions: read-out: p38α MAP kinase inhibitory activity IC50. It is filed as biochemical. The procedure: The capacity of brominated tyrosine derivatives to inhibit p38α activity was evaluated using the ADP-Glo Kinase Assay.
A further experiment deals with PC9 cells. In words: MTT anti-proliferation assay, PC9 cells. Type of experiment: cell-based, human. As to conditions: for MTT, PC9, value relative to control (=100), single replicate: 24 h. The protocol:
(§1) To evaluate the tumor-selective activity of compounds 4l and 4m, dose–response studies were performed on wild-type PC9 and gefitinib-resistant PC9/GR cell lines. […] Subtoxic concentrations of 25, 50, and 75 μM were employed to ensure specificity for drug-resistant phenotypes while preserving normal cell viability. […] To assess long-term proliferative potential, clonogenic survival assays were performed. Cells pretreated with 4l (24 h) were trypsinized to generate single-cell suspensions, plated at 300 cells/well, and cultured for 14 days. […] Cell migration ability was evaluated by the scratch healing assay. […] To evaluate the pro-apoptotic efficacy of 4l, we employed a dual-staining approach using Annexin V-FITC and propidium iodide (PI) for quadrant-specific quantification of programmed cell death. Annexin V binds externalized phosphatidylserine (PS), a hallmark of early apoptosis, while PI permeabilization discriminates late-stage apoptotic or necrotic cells.
(§2) The human normal lung epithelial cell line BEAS-2B, non-small cell lung carcinoma (NSCLC) cell line PC9, and gefitinib-resistant PC9/GR cell line were purchased from Procell Life Science & Technology Co., Ltd. (Wuhan, China). All cell lines were maintained in RPMI-1640 medium (BI, Beit Haemek, Mateh Asher, Israel) supplemented with 10% fetal bovine serum (FBS, Gibco, Thermo Fisher Scientific, Waltham, MA, USA) and 1% penicillin–streptomycin–amphotericin B sterile solution (Solarbio, Beijing, China). Cells were cultured at 37 °C in a humidified incubator with 5% CO2. For subculturing, cells were harvested using trypsin-EDTA solution upon reaching 70–80% confluence and resuspended at appropriate densities for subsequent experiments.
(§3) MTT: Cells (5 × 10^4/mL) were treated with 4l (25–100 μM, 24–48 h), incubated with MTT (10 μL/well, 4–6 h), and dissolved in DMSO. Absorbance (490 nm) was measured to assess viability.
In general terms: Tetrazolium dyes change colour on reduction, which living cells bring about.

Another experiment relates to PC9/GR cells. In words: MTT anti-proliferation assay, gefitinib-resistant PC9/GR cells. It is filed as cell-based, human. As to conditions: for MTT, PC9/GR, value relative to control (=100), single replicate: 24 h. The procedure: as §1, §2, §3

T1 sequence (Q16539 whole entry): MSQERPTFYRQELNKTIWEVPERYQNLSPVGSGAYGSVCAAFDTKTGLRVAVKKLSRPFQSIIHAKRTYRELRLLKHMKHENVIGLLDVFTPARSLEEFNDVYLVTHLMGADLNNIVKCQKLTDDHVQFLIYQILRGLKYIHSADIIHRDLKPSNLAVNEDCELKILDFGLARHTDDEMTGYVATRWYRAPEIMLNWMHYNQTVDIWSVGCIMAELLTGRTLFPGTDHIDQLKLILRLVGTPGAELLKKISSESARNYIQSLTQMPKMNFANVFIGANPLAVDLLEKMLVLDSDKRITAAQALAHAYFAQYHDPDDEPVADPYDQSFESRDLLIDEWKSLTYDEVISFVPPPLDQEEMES

The term IC50 denotes the concentration that inhibits the measured activity by half. For `COc1c(Br)cc(CCNC(=O)Nc2ccc(OCCCN3CCOCC3)cc2)cc1Br` [6g], the IC50 at p38α [1] is 11.7 ± 3 nM. As for `O=C(NCCc1cc(Br)c(O)c(Br)c1)Nc1ccccc1F` [4m, 1-(3,5-dibromo-4-hydroxyphenethyl)-3-(2-fluorophenyl)urea], the IC50 on p38α [2] came to 10.2 ± 2.3 nM; in the experiment with PC9 cells (Homo sapiens, PC-9, wild-type PC9, MTT, 24-hour treatment, 0–100 μM, read-out: IC50, growth inhibition), 55500 nM; with PC9/GR cells (Homo sapiens, gefitinib-resistant PC9/GR, MTT, 24-hour treatment, 0–100 μM, read-out: IC50, growth inhibition) it was 39000 nM. Also, the “MTT, PC9, value relative to control (=100), single replicate” value in the experiment on PC9 cells (25 (μM)) was 72.71 and 78.44 and 89.41 and 73.662; in the experiment on PC9 cells (50 (μM)) it was 73.32 and 75.35 and 64.23 and 80.16; with PC9 cells (75 (μM)), 63.32 and 73.36 and 69.44 and 65.21; in the experiment with PC9 cells (100 (μM)), 61.89 and 69.88 and 70.31 and 63.67. Also, the “MTT, PC9/GR, value relative to control (=100), single replicate” value in the experiment with PC9/GR cells (25 (μM)) is 62.45 and 66.61 and 79.63 and 68.61; in the experiment with PC9/GR cells (50 (μM)), 61.78 and 67.43 and 60.72 and 69.73; in the experiment with PC9/GR cells (75 (μM)), 48.89 and 53.34 and 39.63 and 40.04; in the experiment on PC9/GR cells (100 (μM)), 37.64 and 39.62 and 40.69 and 41.33. In the experiment on PC9/GR cells (PC9/GR versus PC9), the “selectivity towards cells with the drug-resistant phenotype” value was “did not demonstrate significant selectivity”. For the compound `CC(C)Oc1ccc(NC(=O)NCCc2cc(Br)c(O)c(Br)c2)cc1` [4h, 1-(3,5-dibromo-4-hydroxyphenethyl)-3-(4-isopropoxyphenyl)urea], the half-inhibitory concentration (IC50) at p38α [2] came out at 850 ± 32.7 nM. On to `COCCOc1ccc(NC(=O)NCCc2cc(Br)c(O)c(Br)c2)cc1` [4o, 1-(3,5-dibromo-4-hydroxyphenethyl)-3-(4-(2-methoxyethoxy)phenyl)urea], for which the 50% inhibitory concentration (IC50) at p38α [2] turned out to be 11.3 ± 26.2 nM. On to `O=C(NCCc1cc(Br)c(O)c(Br)c1)Nc1cccc(Cl)c1` [4i, 1-(3-chlorophenyl)-3-(3,5-dibromo-4-hydroxyphenethyl)urea], for which the IC50 on p38α [2] is 13.9 ± 2.7 nM.

Regarding `O=C(NCCc1cc(Br)c(O)c(Br)c1)Nc1ccccc1Cl` [4j, 1-(2-chlorophenyl)-3-(3,5-dibromo-4-hydroxyphenethyl)urea], the IC50 on p38α [2] worked out at 74.4 ± 13 nM.

Consider `CCOc1ccc(NC(=O)NCCc2cc(Br)c(O)c(Br)c2)cc1` [4b, 1-(3,5-dibromo-4-hydroxyphenethyl)-3-(4-ethoxyphenyl)urea], for which the IC50 at p38α [2] was 170 ± 12.1 nM. `COc1ccc(NC(=O)NCCc2cc(Br)c(O)c(Br)c2)cc1` [4a, 1-(3,5-dibromo-4-hydroxyphenethyl)-3-(4-methoxyphenyl)urea]: the IC50 on p38α [2] is 265 ± 20.7 nM.

In the case of `CCCOc1ccc(NC(=O)NCCc2cc(Br)c(O)c(Br)c2)cc1` [4c, 1-(3,5-dibromo-4-hydroxyphenethyl)-3-(4-propoxyphenyl)urea], the half-maximal inhibitory concentration (IC50) on p38α [2] worked out at 297 ± 17.5 nM. For `CCCCOc1ccc(NC(=O)NCCc2cc(Br)c(O)c(Br)c2)cc1` [4d, 1-(4-butoxyphenyl)-3-(3,5-dibromo-4-hydroxyphenethyl)urea], on p38α [2], the IC50 came out at 914 ± 44.3 nM. Take `Cc1ccc(NC(=O)NCCc2cc(Br)c(O)c(Br)c2)cc1` [4n, 1-(3,5-dibromo-4-hydroxyphenethyl)-3-(p-tolyl)urea]: the IC50 on p38α [2] stood at 38.7 ± 8.1 nM.

As for `O=C(NCCc1cc(Br)c(O)c(Br)c1)Nc1ccc(Br)cc1` [4k, 1-(4-bromophenyl)-3-(3,5-dibromo-4-hydroxyphenethyl)urea], at p38α [2], the concentration for half-maximal inhibition (IC50) turned out to be 51.1 ± 9.5 nM. Still for that read-out and setting: the value for `O=C(NCCc1cc(Br)c(O)c(Br)c1)Nc1ccc(OCCCN2CCOCC2)cc1` [4g, 1-(3,5-dibromo-4-hydroxyphenethyl)-3-(4-(3-morpholinopropoxy)phenyl)urea] was 167 ± 13.6 nM.
